Results from patent US20070259435A1, “Intravenous Drug Administration and Blood Sampling Model in the Awake Rat” (priority 2004, published 2007).
Counter-ions that a name gives are not always drawn. Like-named read-outs stand apart in the source and are kept apart here.

Legend:
[1] = in vivo; details: male, Sprague-Dawley, rat, single oral 5 mg/kg, Mean
From the text: (§1) Male SPF Sprague-Dawley rats (200-300 g, Charles River, Germany) were used throughout the study. Animals were allowed to acclimatize for one week prior to each part of the study. Tap water and food were available ad libitum.
(§2) The plasma concentration profile and major PK parameters of different chemical structures were investigated following oral administration. Blood samples were taken from the tail vein with either the multiple or single sampling method.
(§3) For both methods, the same formulation per compound was used to ensure any differences in results were not due to formulation effects. Test compounds JNJ1 (a farnesyl transferase compound), JNJ2 (galantamine hydrobromide) and JNJ3 (a CRF antagonist) were formulated in demineralized water or a 10% hydroxypropyl- -β cyclodextrin (HP- - ? CD) solution at final concentrations of between 0.25 and 1 mg/ml. All formulations were stored at room temperature, protected from light and analysed quantitatively. Animals were orally dosed by gastric intubation using a volume of 10 ml/kg.
After dosing the compound, blood samples were taken at the desired time points. For the single sampling method, three animals per time point were sacrificed by decapitation and blood was collected by exsanguination into 10 ml B-D Sterile EDTA K3 Vacutainer tubes. For the multiple sampling technique 0.3 ml venous blood was repeatedly collected from the tail vein as described above. […] Plasma samples were analysed for the appropriate compound using individual qualified research LC-MS/MS methods as described in section 2.4.
For all compounds, individual calibration curves were constructed in blank EDTA rat plasma (covering the expected concentration range). […] After sample preparation, the (reconstituted) residues were pipetted in polypropylene auto sampler vials and analysed using individual qualified research methods.
Aliquots of the residues were analysed using multiple reaction monitoring (MRM) liquid chromatography coupled to tandem mass spectrometry (LC-MS/MS) (API-3000 or 4000, Applied Biosystems, Canada). Chromatographic separation was obtained on commercial base deactivated C-18 columns of different brands, depending on the chromatographic behaviour of the compounds to be analysed. […] Final concentrations were calculated by interpolation from the calibration curves response, using a linear regression model. […]
A limited PK analysis was performed using WinNonlin™ Professional (Version 3.3). […] Average values were then calculated to compare the multiple and the single sampling method. The PK parameters calculated were observed maximum plasma concentration (Cmax), the time to reach the maximum plasma concentration (Tmax), plasma half-life (t1/2) and exposure of the compound calculated by the area under the curve (AUClast and AUCinf). […]

[2] = in vivo; details: male, Sprague-Dawley, rat, po, 5 mg/kg, single oral 5 mg/kg, multiple sampling
From the text: as §1
For multiple blood sampling via the tail vein the animals were placed in a rodent cylindrical restrainer developed by the Scientific Instrument Division (Johnson & Johnson, Pharmaceutical Research and Development, division of Janssen Pharmaceutica). The rat's tail was warmed using an infra red lamp to facilitate the sampling. Venous blood was collected by a 27 G needle into Multivette 600KE tubes containing EDTA (Sarstedt, Germany).
as §2, §3
After dosing the compound, blood samples were taken at the desired time points. For the single sampling method, three animals per time point were sacrificed by decapitation and blood was collected by exsanguination into 10 ml B-D Sterile EDTA K3 Vacutainer tubes. For the multiple sampling technique 0.3 ml venous blood was repeatedly collected from the tail vein as described above. For each compound, 3 rats were used for a complete plasma concentration time profile. Plasma samples were analysed for the appropriate compound using individual qualified research LC-MS/MS methods as described in section 2.4.
For all compounds, individual calibration curves were constructed in blank EDTA rat plasma (covering the expected concentration range). Independent quality control samples (QC) were prepared in rat EDTA plasma at four concentration levels in duplicate, covering the entire calibration range. The study samples, calibration and QC samples were extracted using a generic sample preparation method. After sample preparation, the (reconstituted) residues were pipetted in polypropylene auto sampler vials and analysed using individual qualified research methods.
Aliquots of the residues were analysed using multiple reaction monitoring (MRM) liquid chromatography coupled to tandem mass spectrometry (LC-MS/MS) (API-3000 or 4000, Applied Biosystems, Canada). Chromatographic separation was obtained on commercial base deactivated C-18 columns of different brands, depending on the chromatographic behaviour of the compounds to be analysed. The mass spectrometers were operated in the TurbolonSpray TM mode (positive ion electrospray ionisation). For each compound the mass spectrometer was optimised to measure a selective parent-daughter transition. Integration of the chromatographic peaks was performed using the Analist software version 1.2 (Applied Biosystem, Canada). Final concentrations were calculated by interpolation from the calibration curves response, using a linear regression model. Both accuracy and precision were within expectations for all compounds, allowing accurate PK calculations
A limited PK analysis was performed using WinNonlin™ Professional (Version 3.3). For the single sampling method, a non-compartmental data analysis was carried out on the mean plasma concentration profile (n=3/time point). For the multiple sampling method, a non-compartmental data analysis was carried out on the plasma concentration time profiles obtained from each animal (n=3). […]

AUC(0-inf) ([1]; read-out: AUCinf (extrapolated exposure)): 1440 ng·h/mL
AUC(0-t) ([1]; read-out: AUClast (observed exposure)): 1380 ng·h/mL
Cmax ([1]; read-out: Cmax (maximum plasma concentration)): 155 ng/mL
half-life ([1]; read-out: t1/2 (half life) (converted)): 4.93 h
AUC(0-inf) ([2]; Mean, read-out: AUCinf (extrapolated exposure)): 1180 ng·h/mL
AUC(0-t) ([2]; Mean, read-out: AUClast (observed exposure)): 1100 ng·h/mL
Cmax ([2]; Mean, read-out: Cmax (maximum plasma concentration)): 113 ng/mL
half-life ([2]; Mean, read-out: t1/2 (half life) (converted)): 5.75 h
AUC(0-inf) ([2]; Rat 1, read-out: AUCinf (extrapolated exposure)): 1440 ng·h/mL
AUC(0-t) ([2]; Rat 1, read-out: AUClast (observed exposure)): 1310 ng·h/mL
Cmax ([2]; Rat 1, read-out: Cmax (maximum plasma concentration)): 135 ng/mL
half-life ([2]; Rat 1, read-out: t1/2 (half life) (converted)): 6.81 h
AUC(0-inf) ([2]; Rat 2, read-out: AUCinf (extrapolated exposure)): 1180 ng·h/mL
AUC(0-t) ([2]; Rat 2, read-out: AUClast (observed exposure)): 1120 ng·h/mL
Cmax ([2]; Rat 2, read-out: Cmax (maximum plasma concentration)): 96.3 ng/mL
half-life ([2]; Rat 2, read-out: t1/2 (half life) (converted)): 4.89 h
AUC(0-inf) ([2]; Rat 3, read-out: AUCinf (extrapolated exposure)): 913 ng·h/mL
AUC(0-t) ([2]; Rat 3, read-out: AUClast (observed exposure)): 866 ng·h/mL
Cmax ([2]; Rat 3, read-out: Cmax (maximum plasma concentration)): 108 ng/mL
half-life ([2]; Rat 3, read-out: t1/2 (half life) (converted)): 5.65 h
SMILES: COc1ccc2c3c1O[C@H]1C[C@@H](O)C=C[C@@]31CCN(C)C2 [JNJ2, galantamine hydrobromide]
